From PubChem BioAssay AID1963421 (Molecular Pharmacology Branch, DTP, NCI, 2024)
Several values for one entry are separate records, joined by “and”; a condition that tells them apart may be missing. Equal values may be shown once. Each block holds one compound with its values, some of them ahead of it.

Tested on: 519858-162-T-J1-PDC complex spheroid growth, % test/control
Assay: Anticancer human tumor 519858-162-T-J1-PDC patient-derived colon adenocarcinoma cell line growth inhibition [Asc]
Settings: for viability, T/C: stronger effect = lower value
Outline: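 Tumor cells were grown as multicellular spheroids with stromal HUVEC and mesenchymal stem cells and treated singly or in combination. Concentrations fell in half-log steps from the clinical Cmax, or from 10 microM where none was known.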

[1] = curve of first compound, second compound 0.0316 µM
[2] = curve of first compound, second compound 0.1 µM
[3] = curve of first compound, second compound 0.316 µM
[4] = curve of first compound, second compound 1 µM
[5] = curve of first compound, second compound 3.16 µM
[6] = curve of first compound, second compound 10 µM
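Also: seven day drug exposure begun three days after spheroid seeding.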
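For viability, T/C in this document: 100% = DMSO vehicle wells and lower values mean less viable spheroid.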

IC50 [1]: 2.1 µM
IC50 [2]: 0.823 µM
IC50 [3]: > 3 µM
IC50 [4]: > 3 µM
IC50 [5]: > 3 µM
IC50 [6]: > 3 µM
SMILES: Cc1nc(N2CCC3(CC2)COC(C)C3N)c(CO)nc1Sc1ccnc(N)c1Cl (stereo unspecified) + Cc1c(S(C)(=O)=O)c(-c2cc(F)cc(N3CCN(c4ccc(NS(=O)(=O)c5ccc(NC(CCN6CCC(C(=O)OCCCP(=O)(O)O)CC6)CSc6ccccc6)c(S(=O)(=O)C(F)(F)F)c5)cc4)CC3)c2)c(-c2ccc(Cl)cc2)n1C(C)C
viability, T/C (second compound 0.0316 µM, first compound 0.00949 µM): 90.4%
viability, T/C (second compound 0.0316 µM, first compound 0.03 µM): 106%
viability, T/C (second compound 0.0316 µM, first compound 0.0949 µM): 47.1%
viability, T/C (second compound 0.0316 µM, first compound 0.3 µM): 73.5%
viability, T/C (second compound 0.0316 µM, first compound 0.949 µM): 68%
viability, T/C (second compound 0.0316 µM, first compound 3 µM): 39.9%
viability, T/C (second compound 0.1 µM, first compound 0.00949 µM): 109%
viability, T/C (second compound 0.1 µM, first compound 0.03 µM): 105%
viability, T/C (second compound 0.1 µM, first compound 0.0949 µM): 78.5%
viability, T/C (second compound 0.1 µM, first compound 0.3 µM): 63.9%
viability, T/C (second compound 0.1 µM, first compound 0.949 µM): 47.3%
viability, T/C (second compound 0.1 µM, first compound 3 µM): 43.6%
viability, T/C (second compound 0.316 µM, first compound 0.00949 µM): 81.5%
viability, T/C (second compound 0.316 µM, first compound 0.03 µM): 92.9%
viability, T/C (second compound 0.316 µM, first compound 0.0949 µM): 68%
viability, T/C (second compound 0.316 µM, first compound 0.3 µM): 101%
viability, T/C (second compound 0.316 µM, first compound 0.949 µM): 68.4%
viability, T/C (second compound 0.316 µM, first compound 3 µM): 50.5%
viability, T/C (second compound 1 µM, first compound 0.00949 µM): 92.5%
viability, T/C (second compound 1 µM, first compound 0.03 µM): 68.5%
viability, T/C (second compound 1 µM, first compound 0.0949 µM): 52.5%
viability, T/C (second compound 1 µM, first compound 0.3 µM): 75.5%
viability, T/C (second compound 1 µM, first compound 0.949 µM): 43.2%
viability, T/C (second compound 1 µM, first compound 3 µM): 53.7%
viability, T/C (second compound 3.16 µM, first compound 0.00949 µM): 71.4%
viability, T/C (second compound 3.16 µM, first compound 0.03 µM): 95.6%
viability, T/C (second compound 3.16 µM, first compound 0.0949 µM): 67.6%
viability, T/C (second compound 3.16 µM, first compound 0.3 µM): 62.8%
viability, T/C (second compound 3.16 µM, first compound 0.949 µM): 74.8%
viability, T/C (second compound 3.16 µM, first compound 3 µM): 56.2%
viability, T/C (second compound 10 µM, first compound 0.00949 µM): 68.9%
viability, T/C (second compound 10 µM, first compound 0.03 µM): 86.4%
viability, T/C (second compound 10 µM, first compound 0.0949 µM): 61.1%
viability, T/C (second compound 10 µM, first compound 0.3 µM): 59.8%
viability, T/C (second compound 10 µM, first compound 0.949 µM): 64%
viability, T/C (second compound 10 µM, first compound 3 µM): 76.5%

IC50 (curve of compound): > 3 µM and 2.29 µM
SMILES: Cc1nc(N2CCC3(CC2)COC(C)C3N)c(CO)nc1Sc1ccnc(N)c1Cl (stereo unspecified)
viability, T/C (compound 0.00949 µM): 94.3% and 68.7% and 97.6%
viability, T/C (compound 0.03 µM): 86.9% and 76% and 58.9%
viability, T/C (compound 0.0949 µM): 76.2% and 77.3% and 83.6%
viability, T/C (compound 0.3 µM): 76.3% and 77.2% and 97.4%
viability, T/C (compound 0.949 µM): 76.3% and 78.3% and 53%
viability, T/C (compound 3 µM): 70.9% and 57.7% and 49.1%

IC50 [1]: > 10 µM
IC50 [2]: > 10 µM
IC50 [3]: > 10 µM
IC50 [4]: > 10 µM
IC50 [5]: > 10 µM
IC50 [6]: 0.0316 µM
SMILES: C=CC(=O)N1CCN(c2nc(=O)n(-c3c(C)ccnc3C(C)C)c3nc(-c4c(O)cccc4F)c(F)cc23)C(C)C1 (stereo unspecified) + Cc1c(S(C)(=O)=O)c(-c2cc(F)cc(N3CCN(c4ccc(NS(=O)(=O)c5ccc(NC(CCN6CCC(C(=O)OCCCP(=O)(O)O)CC6)CSc6ccccc6)c(S(=O)(=O)C(F)(F)F)c5)cc4)CC3)c2)c(-c2ccc(Cl)cc2)n1C(C)C
viability, T/C (second compound 0.0316 µM, first compound 0.0316 µM): 93.5%
viability, T/C (second compound 0.0316 µM, first compound 0.1 µM): 97.2%
viability, T/C (second compound 0.0316 µM, first compound 0.316 µM): 83.9%
viability, T/C (second compound 0.0316 µM, first compound 1 µM): 79.4%
viability, T/C (second compound 0.0316 µM, first compound 3.16 µM): 83.8%
viability, T/C (second compound 0.0316 µM, first compound 10 µM): 70.9%
viability, T/C (second compound 0.1 µM, first compound 0.0316 µM): 84.2%
viability, T/C (second compound 0.1 µM, first compound 0.1 µM): 84.3%
viability, T/C (second compound 0.1 µM, first compound 0.316 µM): 82.5%
viability, T/C (second compound 0.1 µM, first compound 1 µM): 89.5%
viability, T/C (second compound 0.1 µM, first compound 3.16 µM): 87.7%
viability, T/C (second compound 0.1 µM, first compound 10 µM): 77%
viability, T/C (second compound 0.316 µM, first compound 0.0316 µM): 89.7%
viability, T/C (second compound 0.316 µM, first compound 0.1 µM): 86.6%
viability, T/C (second compound 0.316 µM, first compound 0.316 µM): 76.2%
viability, T/C (second compound 0.316 µM, first compound 1 µM): 75.5%
viability, T/C (second compound 0.316 µM, first compound 3.16 µM): 68.7%
viability, T/C (second compound 0.316 µM, first compound 10 µM): 66.1%
viability, T/C (second compound 1 µM, first compound 0.0316 µM): 62.6%
viability, T/C (second compound 1 µM, first compound 0.1 µM): 58.5%
viability, T/C (second compound 1 µM, first compound 0.316 µM): 72.4%
viability, T/C (second compound 1 µM, first compound 1 µM): 69.5%
viability, T/C (second compound 1 µM, first compound 3.16 µM): 87.9%
viability, T/C (second compound 1 µM, first compound 10 µM): 73.6%
viability, T/C (second compound 3.16 µM, first compound 0.0316 µM): 72.8%
viability, T/C (second compound 3.16 µM, first compound 0.1 µM): 77.9%
viability, T/C (second compound 3.16 µM, first compound 0.316 µM): 64%
viability, T/C (second compound 3.16 µM, first compound 1 µM): 60.6%
viability, T/C (second compound 3.16 µM, first compound 3.16 µM): 56.3%
viability, T/C (second compound 3.16 µM, first compound 10 µM): 68.9%
viability, T/C (second compound 10 µM, first compound 0.0316 µM): 52.9%
viability, T/C (second compound 10 µM, first compound 0.1 µM): 53.7%
viability, T/C (second compound 10 µM, first compound 0.316 µM): 46.9%
viability, T/C (second compound 10 µM, first compound 1 µM): 55.3%
viability, T/C (second compound 10 µM, first compound 3.16 µM): 83.2%
viability, T/C (second compound 10 µM, first compound 10 µM): 63.7%
